± gives the standard deviation of the averaged measurements.
How the values were obtained:
[1] = compound: CCCS(=O)(=O)Nc1ccc(F)c(C(=O)c2c[nH]c3ncc(Cl)cc23)c1F [PLX-4720]; experiment: surviving fraction relative to DMSO-only wells; higher = less growth inhibition; details: exposure time: 5 days
In short: (§1)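 Viability values are CellTiter-Glo luminescence readings, given as surviving fraction against the median of DMSO-only wells. The readings were taken after 10 minutes at room temperature, following five days of continuous exposure to inhibitors at 0.5, 1, 5, 10, 50, 100, 500 and 1000 nM that began 24 hours after log-phase tumour cell lines were seeded at 250–500 cells per well in 384-well plates. Every line was screened three times and kept only if replicate Pearson r >0.7 and median Z' >0.3.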

[2] = compound: O=C(NOCC1CC1)c1ccc(F)c(F)c1Nc1ccc(I)cc1Cl; experiment: as above; details: exposure time: 5 days
In short: as §1

Row | Test System | surviving fraction ([1]; 0.5 nM) | surviving fraction ([1]; 1 nM) | surviving fraction ([1]; 5 nM) | surviving fraction ([1]; 10 nM) | surviving fraction ([1]; 50 nM) | surviving fraction ([1]; 100 nM) | surviving fraction ([1]; 500 nM) | surviving fraction ([1]; 1000 nM) | surviving fraction ([2]; 0.5 nM) | surviving fraction ([2]; 1 nM) | surviving fraction ([2]; 5 nM) | surviving fraction ([2]; 10 nM) | surviving fraction ([2]; 50 nM) | surviving fraction ([2]; 100 nM) | surviving fraction ([2]; 500 nM) | surviving fraction ([2]; 1000 nM)
1 | HU09 BONE | 0.863 ± 0.032 | 0.959 ± 0.13 | 0.873 ± 0.013 | 0.941 ± 0.071 | 1.01 ± 0.07 | 0.946 ± 0.14 | 0.898 ± 0.11 | 1 ± 0.11 | 0.968 ± 0.024 | 1 ± 0.15 | 1.06 ± 0.073 | 1.06 ± 0.11 | 0.995 ± 0.1 | 1.03 ± 0.12 | 0.894 ± 0.044 | 0.905 ± 0.066
2 | JIMT1 BREAST | 0.857 ± 0.025 | 0.862 ± 0.042 | 0.894 ± 0.05 | 0.887 ± 0.046 | 0.966 ± 0.067 | 1.01 ± 0.06 | 0.947 ± 0.066 | 0.976 ± 0.037 | 0.957 ± 0.056 | 0.967 ± 0.039 | 0.997 ± 0.032 | 0.997 ± 0.02 | 0.955 ± 0.013 | 0.956 ± 0.017 | 0.8092 ± 0.0039 | 0.7653 ± 0.0068
3 | JURKAT HAEMATOPOIETIC AND LYMPHOID TISSUE | 0.9917 ± 0.0087 | 0.964 ± 0.02 | 0.935 ± 0.026 | 0.972 ± 0.04 | 0.981 ± 0.026 | 0.996 ± 0.059 | 1.03 ± 0.02 | 1.06 ± 0.016 | 1.03 ± 0.012 | 1.032 ± 0.0095 | 1.04 ± 0.016 | 1.02 ± 0.044 | 0.98 ± 0.011 | 1 ± 0.014 | 1.03 ± 0.013 | 0.994 ± 0.033
4 | KPD BONE | 0.917 ± 0.082 | 0.916 ± 0.017 | 0.973 ± 0.024 | 0.982 ± 0.011 | 1.01 ± 0.075 | 0.988 ± 0.075 | 0.932 ± 0.085 | 0.9813 ± 0.0098 | 1.17 ± 0.41 | 0.967 ± 0.047 | 1.032 ± 0.007 | 0.977 ± 0.037 | 0.986 ± 0.065 | 0.96 ± 0.032 | 0.968 ± 0.041 | 0.922 ± 0.055
5 | LM7 BONE | 0.725 ± 0.067 | 0.715 ± 0.026 | 0.809 ± 0.033 | 0.825 ± 0.03 | 0.884 ± 0.066 | 0.948 ± 0.069 | 0.871 ± 0.028 | 0.87 ± 0.031 | 0.983 ± 0.049 | 1.01 ± 0.041 | 1.1 ± 0.12 | 1 ± 0.024 | 1.02 ± 0.073 | 0.943 ± 0.1 | 0.821 ± 0.011 | 0.853 ± 0.089
6 | MCF7 BREAST | 0.746 ± 0.042 | 0.873 ± 0.059 | 0.831 ± 0.033 | 0.83 ± 0.035 | 0.83 ± 0.014 | 0.915 ± 0.022 | 0.851 ± 0.021 | 0.899 ± 0.048 | 0.843 ± 0.041 | 0.87 ± 0.035 | 0.848 ± 0.02 | 0.849 ± 0.028 | 0.874 ± 0.029 | 0.867 ± 0.045 | 0.849 ± 0.022 | 0.841 ± 0.06
7 | MDAMB134 BREAST | 0.624 ± 0.088 | 0.701 ± 0.076 | 0.715 ± 0.014 | 0.78 ± 0.25 | 0.754 ± 0.09 | 0.9355 ± 0.0021 | 0.726 ± 0.076 | 0.76 ± 0.054 | 0.871 ± 0.27 | 1.03 ± 0.16 | 0.933 ± 0.067 | 0.869 ± 0.075 | 0.809 ± 0.097 | 0.732 ± 0.11 | 0.556 ± 0.044 | 0.711 ± 0.15
8 | MDAMB157 BREAST | 0.848 ± 0.032 | 0.962 ± 0.069 | 0.958 ± 0.079 | 1 ± 0.093 | 0.914 ± 0.094 | 1.01 ± 0.027 | 0.868 ± 0.082 | 0.86 ± 0.039 | 0.877 ± 0.043 | 0.86 ± 0.12 | 0.929 ± 0.1 | 0.928 ± 0.069 | 0.85 ± 0.02 | 0.866 ± 0.037 | 0.787 ± 0.035 | 0.664 ± 0.013
9 | MDAMB231 BREAST | 0.936 ± 0.018 | 0.964 ± 0.017 | 0.969 ± 0.024 | 0.9755 ± 0.0065 | 1.01 ± 0.031 | 1.03 ± 0.012 | 1.01 ± 0.011 | 1.03 ± 0.038 | 0.963 ± 0.011 | 0.994 ± 0.035 | 1 ± 0.024 | 1.02 ± 0.032 | 0.969 ± 0.024 | 0.912 ± 0.022 | 0.65 ± 0.039 | 0.52 ± 0.02
10 | MDAMB361 BREAST | 0.888 ± 0.076 | 0.865 ± 0.035 | 0.8033 ± 0.0065 | 0.792 ± 0.035 | 0.991 ± 0.074 | 0.918 ± 0.097 | 0.96 ± 0.097 | 0.86 ± 0.078 | 1.06 ± 0.12 | 0.887 ± 0.067 | 0.986 ± 0.076 | 0.973 ± 0.029 | 0.963 ± 0.083 | 1.03 ± 0.019 | 1.05 ± 0.072 | 0.972 ± 0.12
11 | MDAMB436 BREAST | 0.754 ± 0.019 | 0.831 ± 0.092 | 0.837 ± 0.052 | 0.821 ± 0.024 | 0.9 ± 0.096 | 0.943 ± 0.066 | 0.901 ± 0.062 | 0.909 ± 0.1 | 0.904 ± 0.065 | 0.905 ± 0.024 | 0.932 ± 0.026 | 0.883 ± 0.029 | 0.8685 ± 0.0053 | 0.959 ± 0.085 | 0.944 ± 0.023 | 0.78 ± 0.016
12 | MDAMB453 BREAST | 0.963 ± 0.054 | 1.01 ± 0.048 | 1.04 ± 0.071 | 1.01 ± 0.044 | 0.977 ± 0.075 | 1.03 ± 0.083 | 1.03 ± 0.044 | 1.03 ± 0.042 | 0.958 ± 0.033 | 1.02 ± 0.062 | 1.02 ± 0.072 | 0.992 ± 0.046 | 1.03 ± 0.094 | 1.05 ± 0.028 | 1.02 ± 0.06 | 1.06 ± 0.03
13 | MDAMB468 BREAST | 0.827 ± 0.026 | 0.828 ± 0.0072 | 0.895 ± 0.028 | 0.928 ± 0.024 | 1.04 ± 0.03 | 1.08 ± 0.037 | 0.961 ± 0.045 | 0.924 ± 0.025 | 0.938 ± 0.079 | 0.983 ± 0.083 | 1.02 ± 0.029 | 1 ± 0.11 | 0.933 ± 0.046 | 0.998 ± 0.038 | 0.885 ± 0.029 | 0.913 ± 0.0098
14 | MFM223 BREAST | 0.709 ± 0.032 | 0.758 ± 0.066 | 0.691 ± 0.098 | 0.754 ± 0.057 | 0.97 ± 0.11 | 1.01 ± 0.062 | 0.981 ± 0.025 | 1.01 ± 0.11 | 1.09 ± 0.046 | 1.06 ± 0.088 | 1.05 ± 0.059 | 1.07 ± 0.089 | 1.14 ± 0.037 | 1.12 ± 0.057 | 1.012 ± 0.0095 | 1.04 ± 0.03
15 | MG63 BONE | 0.875 ± 0.01 | 0.884 ± 0.025 | 0.926 ± 0.016 | 0.937 ± 0.016 | 0.941 ± 0.012 | 0.958 ± 0.015 | 0.933 ± 0.013 | 0.963 ± 0.033 | 0.9313 ± 0.0065 | 0.969 ± 0.018 | 0.976 ± 0.016 | 0.997 ± 0.017 | 0.935 ± 0.0096 | 0.957 ± 0.011 | 0.85 ± 0.018 | 0.859 ± 0.022
16 | MHM BONE | 0.9713 ± 0.0025 | 0.96 ± 0.016 | 1 ± 0.023 | 1.02 ± 0.021 | 0.97 ± 0.022 | 1.01 ± 0.031 | 0.949 ± 0.0092 | 1.01 ± 0.038 | 0.947 ± 0.024 | 0.906 ± 0.095 | 0.992 ± 0.013 | 1.01 ± 0.015 | 0.974 ± 0.028 | 0.971 ± 0.048 | 0.926 ± 0.022 | 0.931 ± 0.032
17 | NCIH441 LUNG | 0.899 ± 0.056 | 0.906 ± 0.072 | 0.919 ± 0.1 | 0.965 ± 0.016 | 0.933 ± 0.045 | 0.968 ± 0.025 | 0.961 ± 0.044 | 0.898 ± 0.085 | 0.939 ± 0.093 | 0.968 ± 0.084 | 0.945 ± 0.026 | 0.984 ± 0.041 | 0.909 ± 0.013 | 0.846 ± 0.031 | 0.722 ± 0.023 | 0.757 ± 0.053
18 | NOS1 BONE | 0.85 ± 0.15 | 1 ± 0.11 | 0.961 ± 0.069 | 0.994 ± 0.2 | 1.17 ± 0.059 | 1.25 ± 0.12 | 1.11 ± 0.12 | 0.911 ± 0.057 | 1.15 ± 0.08 | 1.15 ± 0.075 | 1.16 ± 0.057 | 1.16 ± 0.062 | 0.949 ± 0.065 | 0.952 ± 0.1 | 0.863 ± 0.054 | 0.773 ± 0.016
19 | NY BONE | 0.905 ± 0.038 | 0.909 ± 0.026 | 0.933 ± 0.016 | 0.959 ± 0.02 | 0.949 ± 0.014 | 0.9663 ± 0.004 | 0.932 ± 0.0095 | 0.9273 ± 0.0065 | 0.923 ± 0.029 | 0.9257 ± 0.0055 | 0.953 ± 0.02 | 0.975 ± 0.023 | 0.97 ± 0.026 | 0.993 ± 0.028 | 0.93 ± 0.024 | 0.921 ± 0.037
20 | OS25HAL BONE | 0.902 ± 0.013 | 0.925 ± 0.016 | 0.934 ± 0.0061 | 0.942 ± 0.02 | 0.976 ± 0.01 | 0.98 ± 0.015 | 0.966 ± 0.0046 | 0.974 ± 0.014 | 0.951 ± 0.024 | 0.964 ± 0.02 | 0.931 ± 0.033 | 0.971 ± 0.025 | 0.955 ± 0.015 | 0.989 ± 0.012 | 0.943 ± 0.012 | 0.954 ± 0.024
21 | OSHN BONE | 0.859 ± 0.011 | 0.882 ± 0.017 | 0.89 ± 0.025 | 0.904 ± 0.018 | 0.944 ± 0.035 | 0.9783 ± 0.0029 | 0.978 ± 0.019 | 0.975 ± 0.016 | 0.969 ± 0.026 | 0.983 ± 0.029 | 0.979 ± 0.019 | 0.988 ± 0.028 | 0.969 ± 0.03 | 0.989 ± 0.016 | 0.973 ± 0.018 | 1 ± 0.027
